In US5079241A, “Cephalosporin derivatives and pharmaceutical compositions in which they are present” (Sanofi, priority 1987, dated 1992):
In brackets after ≈: the same amount, converted by molar mass. Read-outs that look alike come from different tables or passages of the source.

Tests used:
[1] = protein binding by comparing two standard scales in baboon plasma and phosphate buffer; format: in vitro ADME; conditions: baboon plasma vs phosphate buffer (pH 7, 0.03M)
From the text: Furthermore, the protein binding is obtained by comparing two standard scales, one being prepared in baboon plasma and the other in phosphate buffer (pH 7, 0.03M).

[2] = pharmacokinetic behavior in baboons, 20 mg/kg (Tables 4 and 6); format: in vivo; conditions: baboon; for Cmax: read-out: Max plasma concentration; for AUC(0-t) at 6 h: trapezium method; for concentration at 0.5 h: 30 minutes; for concentration at 0.75 h: 45 minutes; for concentration at 1 h: 60 minutes; for concentration at 1.5 h: 90 minutes; for concentration at 2 h: 120 minutes; for concentration at 3 h: 180 minutes; for concentration at 4 h: 240 minutes; for concentration at 5 h: 300 minutes; for dose excreted at 6 h: urine, 6 h (Table 6), read-out: Excretion in the urine
Protocol: Furthermore, the pharmacokinetic behavior of the products according to the invention was studied in baboons after administration at a dose of 20 mg/kg by intramuscular injection or intravenous injection.
Blood samples taken at various times after administration are used to determine the plasma concentration of the product studied by microbiological assay.
It is thus possible to construct the curve showing the plasma concentration as a function of time, and to determine different pharmacokinetic parameters of the compound studied:
the elimination half-life (t1/2 β) is calculated by the formula [formula] in which β represents the elimination gradient or slope;
the area under the curve (AUC) is determined by the trapezium method.
The plasma concentrations obtained with various products of the invention are collated in Tables 4 and 5. They are expressed in μg/ml.

[3] = test system: Klebsiella pneumoniae R30; test: bacteriostatic action in vitro by the dilution method (MIC); format: cell-based; conditions: read-out: minimum inhibitory concentrations (MIC)
Protocol: (§1) The bacteriostatic action was determined in vitro by the dilution method. The study was carried out on both Gram-positive strains and Gram-negative strains.
(§2) The results for various products according to the invention, expressed as minimum inhibitory concentrations (MIC - μg/ml), are collated in Table 3.

[4] = test system: Proteus vulgaris GN 76/C-1; test: as above; format: cell-based; conditions: GN76, read-out: minimum inhibitory concentrations (MIC)
Protocol: as §1, §2

Staph. aureus Smith = test: as above; format: cell-based; conditions: Staphylococcus aureus, read-out: minimum inhibitory concentrations (MIC)
Protocol: as §1, §2

[5] = test system: Pseudomonas aeruginosa NCTC 8203; test: as above; format: cell-based; conditions: NCTC8203, read-out: minimum inhibitory concentrations (MIC)
Protocol: as §1, §2

[6] = test system: Escherichia coli C1/Col E1::Tn3; test: as above; format: cell-based; conditions: read-out: minimum inhibitory concentrations (MIC)
Protocol: as §1, §2

Providencia 155 = test: as above; format: cell-based; conditions: read-out: minimum inhibitory concentrations (MIC)
Protocol: as §1, §2

[7] = test system: Escherichia coli SOL RL 90; test: as above; format: cell-based; conditions: SOLRL90, read-out: minimum inhibitory concentrations (MIC)
Protocol: as §1, §2

[8] = plasma, 20 mg/kg, 20 mg/kg (Table 6), read-out: Plasma concentration at 6 h
[9] = plasma, 20 mg/kg, 360 minutes, read-out: plasma concentration

Compound	fraction unbound [1]	Tmax ([2]; plasma, 20 mg/kg (Table 6))	Cmax ([2]; plasma, 20 mg/kg (Table 6))	AUC(0-t) at 6 h ([2]; plasma, 20 mg/kg (Table 6))	concentration at 6 h [2, 8]	concentration at 10 min ([2]; plasma, 20 mg/kg)	concentration at 20 min ([2]; plasma, 20 mg/kg)	concentration at 0.5 h ([2]; plasma, 20 mg/kg)	concentration at 0.75 h ([2]; plasma, 20 mg/kg)	concentration at 1 h ([2]; plasma, 20 mg/kg)	concentration at 1.5 h ([2]; plasma, 20 mg/kg)	concentration at 2 h ([2]; plasma, 20 mg/kg)	concentration at 3 h ([2]; plasma, 20 mg/kg)	concentration at 4 h ([2]; plasma, 20 mg/kg)	concentration at 5 h ([2]; plasma, 20 mg/kg)	concentration at 6 h [2, 9]	dose excreted at 6 h ([2]; 20 mg/kg)	MIC [3]	MIC [4]	MIC (Staph. aureus Smith)	other results
CC(C)(O/N=C(\C(=O)NC1C(=O)N2C(C(=O)O)=C(COC(=O)c3ccc(NC(=O)[C@@H](N)CCCN)c(O)c3)CSC12)c1csc(N)n1)C(=O)O (stereo partly shown) [SR 44128]	0.16	2 h	195 µg/mL	898 µg·h/mL	104 µg/mL	62.9 µg/mL	115 µg/mL	135 µg/mL	177 µg/mL	188 µg/mL	188 µg/mL	195 µg/mL	169 µg/mL	142 µg/mL	123 µg/mL	105 µg/mL	72%	1 µg/mL (≈ 1.36 µM)	0.12 µg/mL (≈ 0.163 µM)	8 µg/mL (≈ 10.9 µM)	MIC [5]: 2 µg/mL (≈ 2.72 µM); MIC [6]: 0.12 µg/mL (≈ 0.163 µM); MIC (Providencia 155): 1 µg/mL (≈ 1.36 µM); MIC [7]: 2 µg/mL (≈ 2.72 µM)
CC(C)(O/N=C(\C(=O)NC1C(=O)N2C(C(=O)O)=C(COC(=O)c3ccc(NC(=O)C(N)CCN)c(O)c3)CSC12)c1csc(N)n1)C(=O)O (stereo not shown) [SR 44130]	0.08	1.5 h	143 µg/mL	707 µg·h/mL	90.4 µg/mL	39.1 µg/mL	60.9 µg/mL	81.9 µg/mL	105 µg/mL	122 µg/mL	143 µg/mL	142 µg/mL	138 µg/mL	135 µg/mL	109 µg/mL	90.4 µg/mL	37%	1 µg/mL (≈ 1.39 µM)	0.12 µg/mL (≈ 0.166 µM)	8 µg/mL (≈ 11.1 µM)	concentration at 5.5 h ([2]; plasma, 20 mg/kg, 330 minutes): 93.8 µg/mL; MIC [5]: 2 µg/mL (≈ 2.77 µM); MIC [6]: 0.25 µg/mL (≈ 0.347 µM); MIC (Providencia 155): 1 µg/mL (≈ 1.39 µM); MIC [7]: 2 µg/mL (≈ 2.77 µM)
